Legend:
[1] = Determination of the log P values by HPLC (formic acid method); format: physicochemical; conditions: reversed-phase column (C 18), acidic range (pH 3.4), 55° C.
Method: 1) Description of Method for Determination of the Log P Values (Formic Acid Method)
Eluents for determination in the acidic range (pH 3.4):
Eluent A: acetonitrile+1 ml of formic acid/liter. Eluent B: water+0.9 ml of formic acid/liter.
The lambda max values were determined in the maxima of the chromatographic signals using the UV spectra from 200 nm to 400 nm.

Meloidogyne incognita = Meloidogyne incognita test (MELGIN); format: in vivo; conditions: application rate 20 ppm, lettuce in sand, after 14 days; for pest or weed control at 20 ppm: Meloidogyne incognita, 336 h, read-out: nematicidal effect (formation of galls)
Method: Meloidogyne incognita Test (MELGIN)
Solvent: 125.0 parts by weight of acetone
To prepare a suitable active compound preparation, 1 part by weight of active compound is mixed with the stated amount of solvent and the concentrate is diluted with water to the desired concentration.
Vessels are filled with sand, active compound solution, an egg/larvae suspension of the root-knot nematode (Meloidogyne incognita) and lettuce seeds. The lettuce seeds germinate and the plants develop. On the roots, galls are formed.
After 14 days, the nematicidal effect in % is determined by the formation of galls. 100% means that no galls have been found; 0% means that the number of galls on the treated plants corresponds to the untreated control.

Boophilus microplus = Boophilus microplus test (DIP); format: in vivo; conditions: application rate 100 ppm, after 7 days by laying of fertile eggs, 100% = no fertile eggs
Method: Boophilus microplus Test (DIP)
Test animals: adult engorged Boophilus microplus females of the SP-resistant Parkhurst strain
(§1) Solvent: dimethyl sulphoxide
10 mg of active compound are dissolved in 0.5 ml of dimethyl sulphoxide. For the purpose of preparing a suitable formulation, the active compound solution is diluted with water to the concentration desired in each case.
This active compound preparation is pipetted into tubes. 8-10 ticks are transferred into a further tube with holes. The tube is immersed into the active compound formulation, and all ticks are completely wetted. After the liquid has run out, the ticks are transferred onto filter discs in plastic dishes and stored in a climate-controlled room.
The activity is assessed after 7 days by laying of fertile eggs. Eggs whose fertility is not visible from the outside are stored in a climate-controlled cabinet until the larvae hatch. An efficacy of 100% means that none of the ticks has laid any fertile eggs.

spider mites = test: spider mite test, efficacy in % after 6 days; format: in vivo; conditions: 100% = all spider mites killed, 0% = none killed
Method: After 6 days, the efficacy in % is determined. 100% means that all of the spider mites have been killed; 0% means that none of the spider mites have been killed.

Lucilia cuprina larvae = test: Lucilia cuprina test (LUCICU); format: in vivo; conditions: application rate 100 ppm; larvae on treated horse meat; after 2 days
Method: Lucilia cuprina Test (LUCICU)
as §1
To produce a suitable preparation of active compound, 10 mg of active compound are mixed with 0.5 ml of dimethyl sulphoxide, and the concentrate is diluted with water to the desired concentration.
Vessels containing horse meat treated with the active compound preparation of the desired concentration are populated with about 20 Lucilia cuprina larvae.
After 2 days, the kill in % is determined 100% means that all of the larvae have been killed; 0% means that none of the larvae have been killed.

Cooperia curticei = Cooperia curticei test (COOPCU); format: in vivo
Method: Cooperia curticei Test (COOPCU)
as §1
To produce a suitable preparation of active compound, 10 mg of active compound are mixed with 0.5 ml of dimethyl sulphoxide, and the concentrate is diluted with Ringer solution to the desired concentration.
Vessels containing the active compound preparation of the desired concentration are populated with about 40 nematode larvae (Cooperia curticei).
After 5 days, the kill in % is determined 100% means that all of the larvae have been killed; 0% means that none of the larvae have been killed.

Phaedon cochleariae = Phaedon cochleariae spray test (PHAECO); format: in vivo; conditions: foliar, 168 h, application rate 500 g/ha, larvae on Chinese cabbage leaf discs, after 7 days, read-out: efficacy
Method: Phaedon cochleariae Spray Test (PHAECO)
Solvents: 78.0 parts by weight of acetone • • 1.5 parts by weight of dimethylformamide
Emulsifier: 0.5 part by weight of alkylaryl polyglycol ether
To produce a suitable preparation of active compound, 1 part by weight of active compound is mixed with the stated amounts of solvents and emulsifier, and the concentrate is diluted with emulsifier-containing water to the desired concentration.
After 7 days, the efficacy in % is determined. 100% means that all of the beetle larvae have been killed; 0% means that none of the beetle larvae have been killed.

[2] = reversed-phase HPLC column (C 18)
[3] = Cooperia curticei, 120 h, read-out: efficacy (kill)

In the case of `O=C(Nc1ccn(-c2ncccc2Cl)n1)c1ccccc1Br` [Compound I-1-137], the “log P” value [1] is reported as 2.23 and the “nematicidal effect (formation of galls)” value (Meloidogyne incognita) is reported as 80%.
For `Cc1nn(C)c(Cl)c1C(=O)Nc1ccn(-c2ccccc2Cl)n1` [Compound I-1-48], the “log P” value [1] was 2.46 and the efficacy (Boophilus microplus) was 100%.
For `O=C(Nc1ccn(-c2ccccc2C(F)(F)F)n1)c1ccccc1I` [Compound I-1-5], the “log P” value [1] was 3.05 and the efficacy (Boophilus microplus) was 100%.
With `O=C(Nc1ccn(-c2ccccc2Cl)n1)c1ncccc1C(F)(F)F` [Compound I-1-39] the “log P” value [1] was 2.99, the efficacy (Boophilus microplus) was 90% and the efficacy in % (spider mites; application rate of 500 g/ha) was 80%.
With `Cc1ncccc1C(=O)Nc1ccn(-c2cc(F)ccc2F)n1` [Compound I-1-69] the “log P” value [1] was 1.53, the “efficacy (kill)” value (Lucilia cuprina larvae) was 90% and the “efficacy (kill)” value (Cooperia curticei; application rate 100 ppm, nematode larvae, after 5 days) was 80%.
For `O=C(Nc1ccn(-c2c(F)cccc2F)n1)c1ccccc1I` [Compound I-1-83], the “log P” value [1] was 2.67 and the efficacy (Boophilus microplus) was 100%.
`O=C(Nc1ccn(-c2c(F)cc(F)c[n+]2[O-])n1)c1ccccc1C(F)(F)F` [Compound I-1-438, N-[1-(3,5-Difluoro-1-oxidopyridin-2-yl)-1H-pyrazol-3-yl]-2-(trifluoromethyl)benzamide] gave a chromatographic logP [1, 2] of 1.69 and a pest or weed control at 20 ppm (Meloidogyne incognita) of 90%.
With `O=C(Nc1ccn(-c2ccccc2Cl)n1)c1ccccc1I` [Compound I-1-33] the “log P” value [1] was 2.95 and the efficacy (Boophilus microplus) was 100%.
For `O=C(Nc1ccn(-c2ccccc2C(F)(F)F)n1)c1ccccc1Br` [Compound I-1-186], the “log P” value [1] was 2.96 and the “efficacy (kill)” value (Lucilia cuprina larvae) was 80%.
With `Cc1cc(NC(=O)c2cccnc2Br)nn1-c1ccc(F)cc1F` [Compound I-1-210] the “log P” value [1] was 2.89 and the efficacy in % (spider mites; application rate of 500 g/ha) was 95%.
For `CCOCN(C(=O)c1ccccc1C(F)(F)F)c1ccn(-c2c(F)cccc2F)n1` [Compound I-1-262], the “log P” value [1] was 3.40 and the efficacy in % (spider mites; application rate of 500 g/ha) was 95%.
With `O=C(Nc1ccn(-c2c(F)cccc2F)n1)c1cccnc1C(F)F` [Compound I-1-248] the “log P” value [1] was 1.99 and the efficacy in % (spider mites; application rate of 500 g/ha) was 80%.
In the case of `O=C(Nc1ccn(-c2ccc(F)cn2)n1)c1c(F)cccc1F` [Compound I-1-598], the “log P” value [1] is reported as 2.61 and the efficacy in % (spider mites; application rate of 500 g/ha) is reported as 85%.
In the case of `O=C(Nc1ccn(-c2ccccc2Cl)n1)c1cccnc1Cl` [Compound I-1-43], the “log P” value [1] is reported as 2.19 and the efficacy in % (spider mites; application rate of 100 g/ha) is reported as 90%.
For `O=C(Nc1ccn(-c2ncc(F)cc2F)n1)c1c(F)cccc1F` [Compound I-1-146, N-[1-(3,5-Difluoropyridin-2-yl)-1H-pyrazol-3-yl]-2,6-difluorobenzamide], the chromatographic logP [1, 2] was 2.19, the pest or weed control at 100 ppm (Cooperia curticei; [3]) was 100% and the pest or weed control at 20 ppm (Meloidogyne incognita) was 100%.
For `O=C(Nc1ccn(-c2ccccc2Br)n1)c1ccccc1Cl` [Compound I-1-51], the “log P” value [1] was 2.83 and the “efficacy (kill)” value (Lucilia cuprina larvae) was 90%.
For `O=C(Nc1cnn(-c2c(F)cccc2F)n1)c1ccccc1C(F)(F)F` [Compound I-2-35, N-[2-(2,6-Difluorophenyl)-2H-1,2,3-triazol-4-yl]-2-(trifluoromethyl)benzamide], the chromatographic logP [1] was 2.8, the pest or weed control at 20 ppm (Cooperia curticei; [3]) was 100% and the pest or weed control at 20 ppm (Meloidogyne incognita) was 100%. The pest or weed control at 500 g/ha (Phaedon cochleariae) was 100%.
For `O=C(c1ccccc1C(F)(F)F)N(CC1CC1)c1ccn(-c2c(F)cccc2F)n1` [Compound I-1-258], the “log P” value [1] was 3.68 and the efficacy in % (spider mites; application rate of 500 g/ha) was 95%.
For `O=C(Nc1ccn(-c2ccc(F)cn2)n1)c1ccccc1C(F)(F)F` [Compound I-1-596], the “log P” value [1] was 2.88 and the efficacy in % (spider mites; application rate of 500 g/ha) was 95%.
With `O=C(Nc1ccn(-c2ccccc2Cl)n1)c1ccccc1Br` [Compound I-1-32] the “log P” value [1] was 2.83 and the efficacy (Boophilus microplus) was 80%.
For `O=C(Nc1ccn(-c2ccccc2Br)n1)c1ccccc1I` [Compound I-1-53], the “log P” value [1] was 3.07 and the efficacy (Boophilus microplus) was 90%.
With `O=C(Nc1cnn(-c2ccccc2Cl)n1)c1ccccc1Cl` [Compound I-2-2] the “log P” value [1] was 2.89 and the “efficacy (kill)” value (Lucilia cuprina larvae) was 80%.
In the case of `O=C(Nc1ccn(-c2ccccc2F)n1)c1ccccc1Br` [Compound I-1-10], the “log P” value [1] is reported as 2.78 and the efficacy in % (spider mites; application rate of 500 g/ha) is reported as 80%.
`Cn1nc(C(F)(F)F)c(C(=O)Nc2ccn(-c3cc(F)ccc3F)n2)c1F` [Compound I-1-72, N-[1-(2,5-Difluorophenyl)-1H-pyrazol-3-yl]-5-fluoro-1-methyl-3-(trifluoromethyl)-1H-pyrazole-4-carboxamide] showed a chromatographic logP [1, 2] of 2.93 and a pest or weed control at 500 g/ha (Phaedon cochleariae) of 100%.
`Cc1cccc(C)c1-n1ccc(NC(=O)c2ccccc2Cl)n1` [Compound I-1-61, 2-Chloro-N-[1-(2,6-dimethylphenyl)-1H-pyrazol-3-yl]benzamide] showed a chromatographic logP [1, 2] of 2.63 and a pest or weed control at 500 g/ha (Phaedon cochleariae) of 100%.
In the case of `CC#CCN(C(=O)c1ccccc1C(F)(F)F)c1ccn(-c2c(F)cccc2F)n1` [Compound I-1-263], the “log P” value [1] is reported as 3.40 and the efficacy in % (spider mites; application rate of 500 g/ha) is reported as 95%.
With `O=C(NC1=NN(c2c(F)cccc2F)CC1)c1ccccc1Br` [Compound I-4-2, 2-Bromo-N-[1-(2,6-difluorophenyl)-4,5-dihydro-1H-pyrazol-3-yl]benzamide] the chromatographic logP [1, 2] was 2.8 and the pest or weed control at 500 g/ha (Phaedon cochleariae) was 100%.
With `O=C(Nc1ccn(-c2cccc(F)c2F)n1)c1ccccc1I` [Compound I-1-190] the “log P” value [1] was 3.09 and the “nematicidal effect (formation of galls)” value (Meloidogyne incognita) was 90%.
With `O=C(Nc1ccn(-c2ncc(Cl)cc2Cl)n1)c1ccccc1C(F)(F)F` [Compound I-1-428] the “log P” value [1] was 3.05 and the efficacy in % (spider mites; application rate of 500 g/ha) was 95%.
With `N#Cc1c(-c2ccc(F)cc2)ccnc1-n1ccc(NC(=O)c2ccccc2C(F)(F)F)n1` [Compound I-1-641, N-{1-[3-Cyano-4-(4-fluorophenyl)pyridin-2-yl]-1H-pyrazol-3-yl}-2-(trifluoromethyl)benzamide] the chromatographic logP [1, 2] was 3.41 and the pest or weed control at 20 ppm (Meloidogyne incognita) was 90%.
With `Cc1ccccc1-n1ccc(NC(=O)c2ccccc2Br)n1` [Compound I-1-1, 2-BromoN-[1-(2-methylphenyl)-1H-pyrazol-3-yl]benzamide] the chromatographic logP [1, 2] was 2.79 and the pest or weed control at 500 g/ha (Phaedon cochleariae) was 100%.
For `O=C(Nc1ccn(-c2c(F)cccc2F)n1)c1cccnc1Br` [Compound I-1-96], the “log P” value [1] was 1.97 and the efficacy (Boophilus microplus) was 100%.
In the case of `CCOc1cccc(F)c1-n1ccc(NC(=O)c2ccccc2Cl)n1` [Compound I-1-117, 2-Chloro-N-[1-(2-ethoxy-6-fluorophenyl)-1H-pyrazol-3-yl]benzamide], the chromatographic logP [1, 2] is reported as 2.84, the pest or weed control at 20 ppm (Meloidogyne incognita) is reported as 100% and the pest or weed control at 500 g/ha (Phaedon cochleariae) is reported as 100%.
Compound `N#Cc1cccnc1-n1ccc(NC(=O)c2ccccc2C(F)(F)F)n1` [Compound I-1-575, N-[1-(3-Cyanopyridin-2-yl)-1H-pyrazol-3-yl]-2-(trifluoromethyl)benzamide] has a chromatographic logP [1, 2] of 2.55, a pest or weed control at 20 ppm (Cooperia curticei; [3]) of 100% and a pest or weed control at 20 ppm (Meloidogyne incognita) of 100%.
In the case of `N#Cc1nccnc1-n1ccc(NC(=O)c2ccccc2C(F)(F)F)n1` [Compound I-1-574, N-[1-(3-Cyanopyrazin-2-yl)-1H-pyrazol-3-yl]-2-(trifluoromethyl)benzamide], the chromatographic logP [1, 2] is reported as 2.47 and the pest or weed control at 20 ppm (Meloidogyne incognita) is reported as 100%.
In the case of `O=C(Nc1ccn(-c2ccccc2Cl)n1)c1ccccc1OC(F)(F)F` [Compound I-1-18], the “log P” value [1] is reported as 3.28 and the efficacy in % (spider mites; application rate of 500 g/ha) is reported as 80%.
For `O=C(Nc1ccn(-c2ccccc2Cl)n1)c1c(F)cccc1Cl` [Compound I-1-37], the “log P” value [1] was 2.84 and the “efficacy (kill)” value (Lucilia cuprina larvae) was 90%.

Reference: patent US9802899B2, “Heterocyclic compounds as pesticides” (BAYER CROPSCIENCE AG, priority 2012, dated 2017)
